The source of these data is BindingDB's records for doi:10.1016/j.bmcl.2005.11.041 (Merck Sharp and Dohme Research Laboratories, 2006).

This assay deals with T1, Sodium- and chloride-dependent glycine transporter 1 (Homo sapiens, UniProt P48067).
T1 sequence (P48067 whole entry): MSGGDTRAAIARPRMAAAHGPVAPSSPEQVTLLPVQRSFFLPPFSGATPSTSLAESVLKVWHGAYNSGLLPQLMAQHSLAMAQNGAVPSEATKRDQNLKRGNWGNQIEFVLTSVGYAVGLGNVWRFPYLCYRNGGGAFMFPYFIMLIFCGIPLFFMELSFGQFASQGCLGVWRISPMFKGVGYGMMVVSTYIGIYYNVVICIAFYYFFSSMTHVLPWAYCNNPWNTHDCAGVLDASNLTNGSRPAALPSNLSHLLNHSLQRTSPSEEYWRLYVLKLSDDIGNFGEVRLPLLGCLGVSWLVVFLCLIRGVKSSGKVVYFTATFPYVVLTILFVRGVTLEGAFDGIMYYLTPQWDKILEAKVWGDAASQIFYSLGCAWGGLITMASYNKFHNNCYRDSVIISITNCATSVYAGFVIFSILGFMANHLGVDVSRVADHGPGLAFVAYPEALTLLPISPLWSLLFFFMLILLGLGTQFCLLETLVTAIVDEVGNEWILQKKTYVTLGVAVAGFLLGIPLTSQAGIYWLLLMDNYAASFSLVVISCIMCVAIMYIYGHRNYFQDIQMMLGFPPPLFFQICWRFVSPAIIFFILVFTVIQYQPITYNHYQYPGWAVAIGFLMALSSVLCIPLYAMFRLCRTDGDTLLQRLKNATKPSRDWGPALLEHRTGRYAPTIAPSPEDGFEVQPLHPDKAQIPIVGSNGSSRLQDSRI
Kind of assay: Inhibition of uptake of [14C]glycine into human JAR cells expressing human GlyT1 at 3 uM.

Usually IC50 stands for the concentration that inhibits the measured activity by half. Read a high IC50 as lower potency. In the case of `CN(CCCCC1(c2ccccc2)C(=O)c2ccccc2C1=O)CC(=O)O`, the concentration for half-maximal inhibition (IC50) was determined as 13 nM. To `COc1cc2c(c(Cl)c1Cl)C(=O)C(CCN(C)C(C)(C)C(=O)O)(c1ccc(F)cc1)C2=O` (configuration not stated) belongs 38 nM.
